# Source: PubChem BioAssay AID1845194 (Molecular Pharmacology Branch, DTP, NCI, 2023)
# “And” between values parts separate entries of the source, which are not always exact repeats. Equal values may be shown once.
# System: 287954-098-R-J1 tumor spheroid viability
# Assay: Anticancer human tumor 287954-098-R-J1 patient-derived Ewing sarcoma cell line growth inhibition
# Details: spheroids with HUVEC and MSC; for viability, T/C: stronger effect = lower value
# Procedure, shortened: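 Complex spheroids of malignant cells with endothelial cells and mesenchymal stem cells; agents alone or combined, from near clinical Cmax (or 10 microM if unknown) down in half-log steps, 0.25% DMSO final.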
# [1] = curve of first compound, second compound 1 µM
# [2] = curve of first compound, second compound 3.16 µM
# [3] = curve of first compound, second compound 10 µM
# [4] = curve of first compound, second compound 31.6 µM
# [5] = curve of first compound, second compound 100 µM
# [6] = second compound 1 µM, first compound 0.00949 µM
# [7] = second compound 1 µM, first compound 0.03 µM
# [8] = second compound 1 µM, first compound 0.0949 µM
# [9] = second compound 1 µM, first compound 0.3 µM
# [10] = second compound 1 µM, first compound 0.949 µM
# [11] = second compound 1 µM, first compound 3 µM
# [12] = second compound 3.16 µM, first compound 0.00949 µM
# [13] = second compound 3.16 µM, first compound 0.03 µM
# [14] = second compound 3.16 µM, first compound 0.0949 µM
# [15] = second compound 3.16 µM, first compound 0.3 µM
# [16] = second compound 3.16 µM, first compound 0.949 µM
# [17] = second compound 3.16 µM, first compound 3 µM
# [18] = second compound 10 µM, first compound 0.00949 µM
# [19] = second compound 10 µM, first compound 0.03 µM
# [20] = second compound 10 µM, first compound 0.0949 µM
# [21] = second compound 10 µM, first compound 0.3 µM
# [22] = second compound 10 µM, first compound 0.949 µM
# [23] = second compound 10 µM, first compound 3 µM
# [24] = second compound 31.6 µM, first compound 0.00949 µM
# [25] = second compound 31.6 µM, first compound 0.03 µM
# [26] = second compound 31.6 µM, first compound 0.0949 µM
# [27] = second compound 31.6 µM, first compound 0.3 µM
# [28] = second compound 31.6 µM, first compound 0.949 µM
# [29] = second compound 31.6 µM, first compound 3 µM
# [30] = second compound 100 µM, first compound 0.00949 µM
# [31] = second compound 100 µM, first compound 0.03 µM
# [32] = second compound 100 µM, first compound 0.0949 µM
# [33] = second compound 100 µM, first compound 0.3 µM
# [34] = second compound 100 µM, first compound 0.949 µM
# [35] = second compound 100 µM, first compound 3 µM
# 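Note: spheroids exposed to compound for 7 days before viability readout.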
# 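Throughout, for viability, T/C: luminescent signal taken as surrogate of viable cell content; 100% = DMSO vehicle control viability and lower means growth inhibition.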
smiles,measurement,setting,value
O=C(c1cc(Cc2n[nH]c(=O)c3ccccc23)ccc1F)N1CCN(C(=O)C2CC2)CC1 + COc1cc2c(cc1O)CCNC21CSC2c3c(OC(C)=O)c(C)c4c(c3C(COC1=O)N1C(O)C3Cc5cc(C)c(OC)c(O)c5C(C21)N3C)OCO4,IC50,"curve of first compound, second compound 30 pM",9180 nM
same,IC50,"curve of first compound, second compound 94.9 pM",10500 nM
same,IC50,"curve of first compound, second compound 0.0003 µM",1460 nM
same,IC50,"curve of first compound, second compound 0.000949 µM",< 94.9 nM
same,IC50,"curve of first compound, second compound 0.003 µM",< 94.9 nM
same,"viability, T/C","second compound 30 pM, first compound 0.0949 µM",112%
same,"viability, T/C","second compound 30 pM, first compound 0.3 µM",108%
same,"viability, T/C","second compound 30 pM, first compound 0.949 µM",99.5%
same,"viability, T/C","second compound 30 pM, first compound 3 µM",112%
same,"viability, T/C","second compound 30 pM, first compound 9.49 µM",48.3%
same,"viability, T/C","second compound 30 pM, first compound 30 µM",4.03%
same,"viability, T/C","second compound 94.9 pM, first compound 0.0949 µM",114%
same,"viability, T/C","second compound 94.9 pM, first compound 0.3 µM",114%
same,"viability, T/C","second compound 94.9 pM, first compound 0.949 µM",109%
same,"viability, T/C","second compound 94.9 pM, first compound 3 µM",109%
same,"viability, T/C","second compound 94.9 pM, first compound 9.49 µM",54.4%
same,"viability, T/C","second compound 94.9 pM, first compound 30 µM",2.51%
same,"viability, T/C","second compound 0.0003 µM, first compound 0.0949 µM",98.8%
same,"viability, T/C","second compound 0.0003 µM, first compound 0.3 µM",102%
same,"viability, T/C","second compound 0.0003 µM, first compound 0.949 µM",68%
same,"viability, T/C","second compound 0.0003 µM, first compound 3 µM",18.6%
same,"viability, T/C","second compound 0.0003 µM, first compound 9.49 µM",0.6%
same,"viability, T/C","second compound 0.0003 µM, first compound 30 µM",0.57%
same,"viability, T/C","second compound 0.000949 µM, first compound 0.0949 µM",0.38%
same,"viability, T/C","second compound 0.000949 µM, first compound 0.3 µM",0.39%
same,"viability, T/C","second compound 0.000949 µM, first compound 0.949 µM",0.26%
same,"viability, T/C","second compound 0.000949 µM, first compound 3 µM",0.18%
same,"viability, T/C","second compound 0.000949 µM, first compound 9.49 µM",0.07%
same,"viability, T/C","second compound 0.000949 µM, first compound 30 µM",0.23%
same,"viability, T/C","second compound 0.003 µM, first compound 0.0949 µM",0.32%
same,"viability, T/C","second compound 0.003 µM, first compound 0.3 µM",0.31%
same,"viability, T/C","second compound 0.003 µM, first compound 0.949 µM",0.3%
same,"viability, T/C","second compound 0.003 µM, first compound 3 µM",0.29%
same,"viability, T/C","second compound 0.003 µM, first compound 9.49 µM",0.28%
same,"viability, T/C","second compound 0.003 µM, first compound 30 µM",0.35%
Cn1ncnc1[C@H]1c2n[nH]c(=O)c3cc(F)cc(c23)N[C@@H]1c1ccc(F)cc1 + Cn1nnc2c(C(N)=O)ncn2c1=O,IC50,[1],544 nM
same,IC50,[2],543 nM
same,IC50,[3],506 nM
same,IC50,[4],57 nM
same,IC50,[5],< 9.49 nM
same,"viability, T/C",[6],111%
same,"viability, T/C",[7],106%
same,"viability, T/C",[8],104%
same,"viability, T/C",[9],94.7%
same,"viability, T/C",[10],8.18%
same,"viability, T/C",[11],2.42%
same,"viability, T/C",[12],112%
same,"viability, T/C",[13],106%
same,"viability, T/C",[14],106%
same,"viability, T/C",[15],99.2%
same,"viability, T/C",[16],3.64%
same,"viability, T/C",[17],2.29%
same,"viability, T/C",[18],102%
same,"viability, T/C",[19],106%
same,"viability, T/C",[20],104%
same,"viability, T/C",[21],89.2%
same,"viability, T/C",[22],2.82%
same,"viability, T/C",[23],2.58%
same,"viability, T/C",[24],104%
same,"viability, T/C",[25],90.6%
same,"viability, T/C",[26],17.9%
same,"viability, T/C",[27],2.5%
same,"viability, T/C",[28],2.34%
same,"viability, T/C",[29],2.04%
same,"viability, T/C",[30],3.4%
same,"viability, T/C",[31],2.77%
same,"viability, T/C",[32],2.49%
same,"viability, T/C",[33],2.57%
same,"viability, T/C",[34],2.68%
same,"viability, T/C",[35],2.3%
O=C(c1cc(Cc2n[nH]c(=O)c3ccccc23)ccc1F)N1CCN(C(=O)C2CC2)CC1,"viability, T/C",compound 0.0949 µM,103%
same,"viability, T/C",compound 0.3 µM,91.4% and 92.4% and 106%
same,"viability, T/C",compound 0.949 µM,91.6% and 89.5% and 109%
same,"viability, T/C",compound 3 µM,90.2% and 93.9% and 108%
same,"viability, T/C",compound 9.49 µM,87.1% and 76.8% and 96.1%
same,IC50,curve of compound,21400 nM and 14900 nM and 20200 nM
COc1cc(C)[nH]c(=O)c1CN1CCc2c(Cl)cc(C(OC)C3COC3)c(Cl)c2C1=O (centres undefined),"viability, T/C",compound 0.0316 µM,97.7% and 96.7% and 96.6%
same,"viability, T/C",compound 0.1 µM,94.9% and 102% and 98.6%
same,"viability, T/C",compound 0.316 µM,82.7% and 91.7% and 95.5%
same,"viability, T/C",compound 1 µM,93.9% and 89.7% and 90.5%
same,"viability, T/C",compound 3.16 µM,95.1% and 83.6% and 94.9%
same,"viability, T/C",compound 10 µM,93% and 92.8% and 93.6%
same,IC50,curve of compound,> 10000 nM
Cc1sc2c(c1C)C(c1ccc(Cl)cc1)=NC(CC(=O)Nc1ccc(O)cc1)c1nnc(C)n1-2 (centres undefined) + Cn1nnc2c(C(N)=O)ncn2c1=O,IC50,[1],954 nM
same,IC50,[2],624 nM
same,IC50,[3],1110 nM
same,IC50,[4],624 nM
same,IC50,[5],181 nM
same,"viability, T/C",[6],112%
same,"viability, T/C",[7],117%
same,"viability, T/C",[8],111%
same,"viability, T/C",[9],101%
same,"viability, T/C",[10],50.2%
same,"viability, T/C",[11],4.34%
same,"viability, T/C",[12],110%
same,"viability, T/C",[13],113%
same,"viability, T/C",[14],123%
same,"viability, T/C",[15],91.9%
same,"viability, T/C",[16],25.9%
same,"viability, T/C",[17],2.69%
same,"viability, T/C",[18],113%
same,"viability, T/C",[19],122%
same,"viability, T/C",[20],122%
same,"viability, T/C",[21],100%
same,"viability, T/C",[22],58.3%
same,"viability, T/C",[23],2.44%
same,"viability, T/C",[24],114%
same,"viability, T/C",[25],130%
same,"viability, T/C",[26],121%
same,"viability, T/C",[27],113%
same,"viability, T/C",[28],13.7%
same,"viability, T/C",[29],1.92%
same,"viability, T/C",[30],105%
same,"viability, T/C",[31],115%
same,"viability, T/C",[32],98.2%
same,"viability, T/C",[33],12.2%
same,"viability, T/C",[34],2.46%
same,"viability, T/C",[35],2.14%
Cn1nnc2c(C(N)=O)ncn2c1=O,"viability, T/C",compound 1 µM,101% [middle of 10 runs]
same,"viability, T/C",compound 3.16 µM,101% [middle of 10 runs]
same,"viability, T/C",compound 10 µM,105% [middle of 10 runs]
same,"viability, T/C",compound 31.6 µM,111% [middle of 10 runs]
same,"viability, T/C",compound 100 µM,100% [middle of 10 runs]
same,IC50,"compound alone, run of 10/17/2019",> 100000 nM
